pIC50: −log10 of the molar value.
Assays:
Assay type in all cases: cell-based
[1] = system: VSVΔG-G (vesicular stomatitis virus glycoprotein); test: microbe, parasite or virus in culture; conditions: for IC50 against VSVΔG-G: 0.3125–40 μM; for pIC50: Vesicular stomatitis virus, read-out: IC50, VSVΔG pseudotypes: G
[2] = system: VSVΔG-Sα (SARS-CoV-2 Alpha S glycoprotein); test: microbe, parasite or virus in culture; conditions: Severe acute respiratory syndrome coronavirus 2, read-out: IC50 against VSVΔG-Sα
[3] = system: VSVΔG-Sδ (SARS-CoV-2 Delta S glycoprotein); test: microbe, parasite or virus in culture; conditions: for pIC50: Severe acute respiratory syndrome coronavirus 2, read-out: IC50 against VSVΔG-Sδ
[4] = system: SARS-CoV-2 Delta (B.1.617.2)
[5] = system: VSVΔG-SM (MERS-CoV S glycoprotein); conditions: 0.3125–40 μM
[6] = system: VSVΔG-Sο (SARS-CoV-2 Omicron S glycoprotein); test: microbe, parasite or virus in culture; conditions: Severe acute respiratory syndrome coronavirus 2, read-out: IC50 against VSVΔG-Sο
SARS-CoV-2 XBB.1.5 = system: SARS-CoV-2 XBB.1.5
SARS-CoV-2 CH.1.1 = system: SARS-CoV-2 CH.1.1

Structure (SMILES) | IC50 against VSVΔG-G [1] | pIC50 [2] | pIC50 [3] | IC50 against VSVΔG-SM [5] | pIC50 [1] | IC50, SARS-CoV-2: XBB.1.5 viral replication (SARS-CoV-2 XBB.1.5) | IC50, SARS-CoV-2: CH.1.1 viral replication (SARS-CoV-2 CH.1.1) | other results
N=C(N)Nc1ccc(C(=O)Oc2ccc3cc(C(=N)N)ccc3c2)cc1 [PCM-0095060, 6-amidino-2-naphthyl p-guanidinobenzoate, reference compound] | no significant activity | 6.04 | 6.51 | – | – | – | – | inhibition of bona fide SARS-CoV-2 Delta virus replication [4]: failed to inhibit
COc1ccc2cc3c(N)nn(C(=O)Cc4c[nH]c5ccccc45)c3nc2c1 [PCM-0166392, 1-{6-amino-12-methoxy-2,4,5-triazatricyclo[7.4.0.0³,⁷]trideca-1,3(7),5,8,10,12-hexaen-4-yl}-2-(3-indolyl)-1-ethanone] | – | – | – | not selective | – | – | – | –
CNC(=O)C(C#N)(Cc1cc(Cl)cc2c1OCOC2)Cc1cc(Cl)cc2c1OCOC2 [PCM-0068389, N-methyl3-(6-chloro-2,4-dihydro-1,3-benzodioxin-8-yl)-2-[(6-chloro-2,4-dihydro-1,3-benzodioxin-8-yl)methyl]-2-cyanopropionamide] | some activity | – | – | lost all activity | – | – | – | –
Nc1nc(Nc2ccccc2)sc1C(=O)c1ccccc1Cl [PCM-0179622, (4-amino-2-anilino-1,3-thiazol-5-yl)(o-chlorophenyl)methanone] | – | – | – | not selective | – | – | – | –
Cc1cccc(NC(=O)CS(=O)(=O)c2nc(-c3ccccc3)cn2-c2ccc(Cl)cc2)c1C [PCM-0163855, 2-((1-(4-chlorophenyl)-4-phenyl-1H-imidazol-2-yl)sulfonyl)-N-(2,3-dimethylphenyl)acetamide] | – | 6.43 | 6.35 | inactive | < 5.00 | neither inhibited | neither inhibited | pIC50 [6]: 4.39
Cc1cccc(NC(=O)C[S+]([O-])c2nc(-c3ccccc3)cn2-c2ccc(Cl)cc2)c1C (racemic) [PCM-0282478, 2-((1-(4-chlorophenyl)-4-phenyl-1H-imidazol-2-yl)sulfinyl)-N-(2,3-dimethylphenyl)acetamide] | – | – | – | – | < 5.00 | neither inhibited | neither inhibited | times more potent than synthesized PCM-0163855 against VSVΔG-Sδ [3]: approximately 10 times

Reference: PMC11176637 (iScience, 2024)
